Some test systems named below: T-47D breast; COLO 205 colon; HS 578T breast; PC-3 prostate; MALME-3M melanoma; TK-10 renal; HT29 colon; SF-268 CNS; HOP-62 NSCLC; NCI/ADR-RES ovarian; RPMI-8226 leukemia.
Experiment in all cases: NCI anticancer screen, dose series, 48 h

SMILES strings stand for the structures.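 In this assay, cells in 96-well plates receive the compound at five concentrations for 48 hours. Endpoints are linearly interpolated between the surrounding concentrations. TGI is the concentration that stops growth completely.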

`COc1c(-c2ccc(F)cc2)oc2c(CC(=O)O)cccc2c1=O`: the TGI with T-47D breast, with COLO 205 colon, with HS 578T breast, in the assay on PC-3 prostate, in the assay with MALME-3M melanoma and in the assay with TK-10 renal was > 100 µM throughout. Moreover, the TGI in the assay with HT29 colon, in the assay on SF-268 CNS, in the assay with HOP-62 NSCLC and in the assay with NCI/ADR-RES ovarian was > 100 µM throughout.

`c1cc2cc(Cc3ccc4[nH]ccc4c3)ccc2[nH]1`: the TGI in the assay on T-47D breast came out at 53.7 µM; in the assay on COLO 205 colon, 33.9 µM; in the assay on HS 578T breast, 66.6 µM; in the assay on PC-3 prostate, 30.1 µM; with MALME-3M melanoma, 34.4 µM; in the assay on TK-10 renal, 52.3 µM. Moreover, the TGI with HT29 colon was determined as 33.1 µM; in the assay on SF-268 CNS, 55.7 µM; in the assay on HOP-62 NSCLC, 32.2 µM.

With `COc1cccc(C2c3cc4c(cc3OC(NNC(N)=O)C2C)OCO4)c1OC` (stereo not drawn), the TGI in the assay on T-47D breast is > 100 µM; with COLO 205 colon, 27.8 µM; in the assay on HS 578T breast it was 45.9 µM; in the assay on RPMI-8226 leukemia, 46.1 µM; with PC-3 prostate, 55 µM; in the assay on MALME-3M melanoma, 73.8 µM. The TGI is 86.3 µM in the assay with TK-10 renal, 62.3 µM in the assay with HT29 colon, > 100 µM in the assay with SF-268 CNS and 57.5 µM in the assay with HOP-62 NSCLC.

For the compound `Cc1ccc(/C=C2\CCS(=O)(=O)c3ccccc3C2=O)cc1`, the TGI was 32.6 µM in the assay with T-47D breast; 30.2 µM with COLO 205 colon; > 100 µM in the assay with HS 578T breast; > 100 µM with RPMI-8226 leukemia; 45.3 µM in the assay with PC-3 prostate; 30.9 µM in the assay with TK-10 renal. In addition, the TGI stood at 31.9 µM in the assay on HT29 colon, 51.6 µM in the assay with SF-268 CNS, 80.4 µM in the assay on HOP-62 NSCLC and 28.2 µM in the assay with NCI/ADR-RES ovarian.

With `CC(c1ccccc1)n1c2ccccc2c2c(N)ncnc21` (stereo not drawn), the TGI is 59.6 µM with T-47D breast; 47 µM in the assay with HS 578T breast; 74.5 µM with RPMI-8226 leukemia; 34.4 µM with PC-3 prostate; 36 µM in the assay on MALME-3M melanoma; 34.9 µM in the assay with TK-10 renal. Also, the TGI in the assay with HT29 colon was determined as 31.6 µM; in the assay with SF-268 CNS, 43.5 µM; with HOP-62 NSCLC it was 31.9 µM; with NCI/ADR-RES ovarian it was 46.3 µM.

Regarding `COC(=O)N1C2C(C[C@@]1(C)C(=O)OC)c1ccccc1N2S(=O)(=O)c1ccccc1` (stereo partly drawn), the TGI with T-47D breast, with COLO 205 colon, in the assay with HS 578T breast, in the assay with RPMI-8226 leukemia, in the assay on PC-3 prostate and with MALME-3M melanoma was > 100 µM throughout. Further, the TGI in the assay with TK-10 renal, in the assay with HT29 colon, in the assay with SF-268 CNS and in the assay on NCI/ADR-RES ovarian was > 100 µM in each case.

Consider `Cc1ccc2nc(-c3nccn3C)cc(C(=O)NC(C)CN(C)C)c2c1` (stereo not drawn), for which the TGI in the assay on T-47D breast, in the assay on COLO 205 colon, in the assay with HS 578T breast, in the assay with PC-3 prostate, in the assay with MALME-3M melanoma and with TK-10 renal was > 100 µM each time. Besides, the TGI in the assay with HT29 colon, in the assay on SF-268 CNS, in the assay on HOP-62 NSCLC and in the assay with NCI/ADR-RES ovarian was > 100 µM each time.

Consider `Clc1ccc2c(c1)CC1C[N+]3=C(CCCCC3)C1=C2` (stereo not drawn), for which the TGI in the assay with T-47D breast, with COLO 205 colon, in the assay with HS 578T breast, with PC-3 prostate, in the assay with MALME-3M melanoma and in the assay with TK-10 renal was > 100 µM each time. The TGI with HT29 colon, in the assay with SF-268 CNS, in the assay with HOP-62 NSCLC and in the assay with NCI/ADR-RES ovarian was > 100 µM throughout.

Regarding `O=C(O)c1ccccc1/C=N\N(CCO)C1=NCCN1`, the TGI in the assay with T-47D breast, in the assay with COLO 205 colon, with HS 578T breast, in the assay on RPMI-8226 leukemia, with PC-3 prostate and in the assay on MALME-3M melanoma was > 100 µM each time. The TGI with TK-10 renal, in the assay with HT29 colon, in the assay with SF-268 CNS and with HOP-62 NSCLC was > 100 µM in each case.

With `COc1ccc(C(SCCO)(c2ccc(OC)cc2)c2ccc(OC)cc2)cc1`, the TGI with T-47D breast was found to be 33.7 µM; in the assay with COLO 205 colon, 25.7 µM; in the assay on HS 578T breast, 44.7 µM; in the assay with PC-3 prostate it was 42.3 µM; in the assay on MALME-3M melanoma it was 34.3 µM; with TK-10 renal it was 55 µM. Besides, the TGI with HT29 colon came out at 46 µM; with SF-268 CNS it was 43.9 µM; in the assay on HOP-62 NSCLC, 44.6 µM; with NCI/ADR-RES ovarian it was 49.1 µM.

With `CC(=O)Oc1ccc(C)c2c1[C@H]1CC[C@]3(C)[C@@H](OC(C)=O)CC[C@H]3[C@@H]1CC2`, the TGI with T-47D breast turned out to be 40.6 µM; with HS 578T breast, 47 µM; with RPMI-8226 leukemia, 49.4 µM; with MALME-3M melanoma, 30.4 µM; in the assay on TK-10 renal, 67.9 µM; in the assay on HT29 colon, 33.5 µM. Moreover, the TGI with SF-268 CNS is 80.3 µM; in the assay on HOP-62 NSCLC, 32 µM; in the assay with NCI/ADR-RES ovarian, 40.4 µM.

(Values after PubChem BioAssay (NCI).)
